# In patent publication US8129417B2, “Substituted octahydrocyclopenta[C]pyrrol-4-amines as calcium channel blockers” (Abbott Laboratories, priority 2008, dated 2012):
# Molecular target: human Cav2.2 (Homo sapiens, UniProt Q00975)
# Assay: Assessment of calcium channel activity using FLIPR (Ca2+ influx in IMR32 cells)
# Assay type: cell-based
# Conditions: 60 minute pre-incubation with compound, 2 μM nifedipine, depolarized with 80 mM KCl
# Outline: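 IMR32 neuroblastoma cells seeded at 1-1.2×10^5 cells/well and grown 48 h at 37 °C before FLIPR Ca2+ influx read. Percent inhibition at each concentration vs no-inhibitor activity; IC50 by non-linear sigmoidal dose-response fit.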
# Sequence of human Cav2.2 (Q00975 whole entry): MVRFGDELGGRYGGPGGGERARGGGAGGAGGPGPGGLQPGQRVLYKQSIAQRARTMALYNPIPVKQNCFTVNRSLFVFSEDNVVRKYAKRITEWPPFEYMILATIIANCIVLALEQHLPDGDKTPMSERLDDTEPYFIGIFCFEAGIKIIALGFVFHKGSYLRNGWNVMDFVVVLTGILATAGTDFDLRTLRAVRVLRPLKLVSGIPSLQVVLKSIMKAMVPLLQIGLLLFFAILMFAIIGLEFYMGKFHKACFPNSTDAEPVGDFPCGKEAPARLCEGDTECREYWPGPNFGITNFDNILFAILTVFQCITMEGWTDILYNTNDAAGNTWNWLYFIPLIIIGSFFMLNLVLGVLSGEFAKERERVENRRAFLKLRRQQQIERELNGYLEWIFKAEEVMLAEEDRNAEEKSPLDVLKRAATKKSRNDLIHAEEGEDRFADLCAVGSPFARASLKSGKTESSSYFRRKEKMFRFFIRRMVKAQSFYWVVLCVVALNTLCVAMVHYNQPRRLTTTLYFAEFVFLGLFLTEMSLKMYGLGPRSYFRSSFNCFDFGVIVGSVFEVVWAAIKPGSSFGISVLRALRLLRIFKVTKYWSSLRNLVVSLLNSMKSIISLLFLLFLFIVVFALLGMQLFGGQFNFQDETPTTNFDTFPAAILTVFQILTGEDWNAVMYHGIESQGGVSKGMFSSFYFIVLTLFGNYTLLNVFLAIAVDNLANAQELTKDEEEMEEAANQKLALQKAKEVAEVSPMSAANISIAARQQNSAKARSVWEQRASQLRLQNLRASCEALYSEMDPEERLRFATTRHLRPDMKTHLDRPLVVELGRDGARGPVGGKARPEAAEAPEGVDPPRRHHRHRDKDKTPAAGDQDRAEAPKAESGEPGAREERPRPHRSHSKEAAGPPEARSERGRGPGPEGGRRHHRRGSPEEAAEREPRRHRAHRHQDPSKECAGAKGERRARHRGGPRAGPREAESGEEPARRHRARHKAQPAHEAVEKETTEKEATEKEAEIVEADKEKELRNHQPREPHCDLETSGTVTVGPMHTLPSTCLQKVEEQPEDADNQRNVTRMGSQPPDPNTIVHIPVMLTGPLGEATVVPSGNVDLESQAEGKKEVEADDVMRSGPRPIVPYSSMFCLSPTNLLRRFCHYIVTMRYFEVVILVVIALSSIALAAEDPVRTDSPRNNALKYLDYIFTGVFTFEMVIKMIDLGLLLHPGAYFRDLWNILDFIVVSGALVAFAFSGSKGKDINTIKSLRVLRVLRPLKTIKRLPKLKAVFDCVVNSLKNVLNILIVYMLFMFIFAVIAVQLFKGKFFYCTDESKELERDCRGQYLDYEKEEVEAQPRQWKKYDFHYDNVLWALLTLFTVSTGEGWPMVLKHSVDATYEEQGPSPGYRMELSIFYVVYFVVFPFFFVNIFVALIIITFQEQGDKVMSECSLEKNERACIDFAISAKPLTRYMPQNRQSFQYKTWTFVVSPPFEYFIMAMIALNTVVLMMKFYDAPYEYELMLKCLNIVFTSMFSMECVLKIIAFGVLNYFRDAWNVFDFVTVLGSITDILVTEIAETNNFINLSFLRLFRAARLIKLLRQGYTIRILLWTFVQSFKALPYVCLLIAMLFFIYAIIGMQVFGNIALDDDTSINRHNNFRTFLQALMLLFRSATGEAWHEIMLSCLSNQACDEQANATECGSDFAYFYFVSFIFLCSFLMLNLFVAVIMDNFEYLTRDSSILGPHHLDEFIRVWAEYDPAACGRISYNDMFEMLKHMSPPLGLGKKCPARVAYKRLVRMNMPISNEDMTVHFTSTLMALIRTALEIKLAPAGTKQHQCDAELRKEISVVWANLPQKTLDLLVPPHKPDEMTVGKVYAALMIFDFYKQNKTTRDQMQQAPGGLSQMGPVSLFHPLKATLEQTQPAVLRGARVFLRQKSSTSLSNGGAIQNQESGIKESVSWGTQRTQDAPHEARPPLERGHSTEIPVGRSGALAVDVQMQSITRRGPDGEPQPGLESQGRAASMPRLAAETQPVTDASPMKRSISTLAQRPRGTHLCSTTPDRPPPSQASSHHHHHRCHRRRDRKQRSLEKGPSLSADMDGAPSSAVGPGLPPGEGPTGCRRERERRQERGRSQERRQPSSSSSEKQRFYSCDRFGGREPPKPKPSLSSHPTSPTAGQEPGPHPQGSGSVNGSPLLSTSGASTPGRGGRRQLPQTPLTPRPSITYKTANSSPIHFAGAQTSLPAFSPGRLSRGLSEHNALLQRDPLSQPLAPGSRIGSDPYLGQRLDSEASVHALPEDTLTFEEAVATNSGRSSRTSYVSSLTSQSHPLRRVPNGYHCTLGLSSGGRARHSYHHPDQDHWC
# Sequence of human Cav2.2 (P54289 25-946 partner limits assumed): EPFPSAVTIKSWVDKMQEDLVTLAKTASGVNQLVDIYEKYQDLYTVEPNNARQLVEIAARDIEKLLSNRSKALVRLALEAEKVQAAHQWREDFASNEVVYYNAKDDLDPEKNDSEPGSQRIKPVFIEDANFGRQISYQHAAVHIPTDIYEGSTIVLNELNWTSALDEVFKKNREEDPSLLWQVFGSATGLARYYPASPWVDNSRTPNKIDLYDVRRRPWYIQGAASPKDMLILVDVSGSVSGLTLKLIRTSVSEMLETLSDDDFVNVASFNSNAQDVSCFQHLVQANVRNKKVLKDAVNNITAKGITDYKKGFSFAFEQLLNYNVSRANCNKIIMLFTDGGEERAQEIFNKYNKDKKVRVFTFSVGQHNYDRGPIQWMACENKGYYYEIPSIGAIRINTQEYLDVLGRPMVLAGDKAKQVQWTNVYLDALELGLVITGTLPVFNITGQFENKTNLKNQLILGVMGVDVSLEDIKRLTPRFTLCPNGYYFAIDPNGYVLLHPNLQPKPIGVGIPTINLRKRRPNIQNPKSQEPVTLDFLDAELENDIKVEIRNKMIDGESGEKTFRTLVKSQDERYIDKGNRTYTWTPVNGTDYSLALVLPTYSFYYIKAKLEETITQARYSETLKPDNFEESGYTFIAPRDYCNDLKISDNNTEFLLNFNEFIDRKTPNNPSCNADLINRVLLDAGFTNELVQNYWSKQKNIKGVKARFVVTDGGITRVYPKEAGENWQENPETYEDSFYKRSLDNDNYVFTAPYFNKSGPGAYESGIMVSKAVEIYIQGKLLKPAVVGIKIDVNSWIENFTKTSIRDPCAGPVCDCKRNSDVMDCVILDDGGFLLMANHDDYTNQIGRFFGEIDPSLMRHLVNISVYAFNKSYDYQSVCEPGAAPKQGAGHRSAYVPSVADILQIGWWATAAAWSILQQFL
# Sequence of human Cav2.2 (P54289 947-1103 partner limits assumed): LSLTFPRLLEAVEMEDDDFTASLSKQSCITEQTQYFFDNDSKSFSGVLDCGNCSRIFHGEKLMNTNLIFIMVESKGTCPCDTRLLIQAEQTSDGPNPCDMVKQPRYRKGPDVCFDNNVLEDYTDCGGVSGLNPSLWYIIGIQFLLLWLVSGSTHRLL
# Sequence of human Cav2.2 (P54284 whole entry partner): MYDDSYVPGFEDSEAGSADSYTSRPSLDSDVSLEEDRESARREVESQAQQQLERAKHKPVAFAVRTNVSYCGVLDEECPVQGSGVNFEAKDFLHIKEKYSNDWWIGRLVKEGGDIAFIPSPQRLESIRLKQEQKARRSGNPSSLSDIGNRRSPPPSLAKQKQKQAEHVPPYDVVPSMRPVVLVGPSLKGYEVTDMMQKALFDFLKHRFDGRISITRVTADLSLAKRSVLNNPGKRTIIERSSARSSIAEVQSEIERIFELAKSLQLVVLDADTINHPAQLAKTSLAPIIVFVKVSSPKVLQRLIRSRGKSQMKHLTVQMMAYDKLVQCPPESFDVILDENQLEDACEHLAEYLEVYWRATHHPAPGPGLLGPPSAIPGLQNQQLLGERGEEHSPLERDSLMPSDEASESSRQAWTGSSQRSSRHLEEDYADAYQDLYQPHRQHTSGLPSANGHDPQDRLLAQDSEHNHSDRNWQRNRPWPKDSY
row,SMILES,IC50
1,"CC(C)(C)C[C@H](NC(=O)OC(C)(C)C)C(=O)N[C@H]1CC[C@@H]2CN(Cc3ccccc3)C[C@@H]21 [Example 226, tert-butyl(S)-1-((3aR,4S,6aS)-2-benzyloctahydrocyclopenta[c]pyrrol-4-ylamino)-4,4-dimethyl-1-oxopentan-2-ylcarbamate]",4.06 µM
2,"O=C(N[C@H]1CC[C@@H]2CN(Cc3ccccc3)C[C@@H]21)C(c1ccc(F)cc1)c1ccc(F)cc1 [Example 228, N-[(3aR,4S,6aS)-2-benzyloctahydrocyclopenta[c]pyrrol-4-yl]-2,2-bis(4-fluorophenyl)acetamide]",2.09 µM
3,"CC(C)(C)OC(=O)N[C@H](C(=O)N[C@@H]1CC[C@H]2CN(Cc3ccccc3)C[C@H]21)C(C)(C)C [Example 234, tert-butyl(S)-1-((3aS,4R,6aR)-2-benzyloctahydrocyclopenta[c]pyrrol-4-ylamino)-3,3-dimethyl-1-oxobutan-2-ylcarbamate]",7.4 µM
4,"CC(C)C(C(=O)N[C@@H]1CC[C@H]2CN(Cc3ccccc3)C[C@H]21)C(C)C [Example 235, N-[(3aS,4R,6aR)-2-benzyloctahydrocyclopenta[c]pyrrol-4-yl]-2-isopropyl-3-methylbutanamide]",14.2 µM
5,"O=C(N[C@H]1CC[C@H]2CN(Cc3cccc(C(F)(F)F)c3)C[C@H]21)C(O)C1CCCCC1 (stereo partly drawn) [Example 237, 2-cyclohexyl-2-hydroxy-N-{(3aS,4S,6aR)-2-[3-(trifluoromethyl)benzyl]octahydrocyclopenta[c]pyrrol-4-yl}acetamide]",1.88 µM
6,"CC(C)C[C@H](NS(C)(=O)=O)C(=O)N[C@H]1CC[C@@H]2CN(Cc3ccccc3)C[C@@H]21 [Example 242, N^1-[(3aR,4S,6aS)-2-benzyloctahydrocyclopenta[c]pyrrol-4-yl]-N^2-(methylsulfonyl)-L-leucinamide]",7.92 µM
7,"CC(C)C[C@H](NCC(C)(C)C)C(=O)N[C@@H]1CC[C@H]2CN(Cc3ccccc3)C[C@H]21 [Example 245, N^1-[(3aS,4R,6aR)-2-benzyloctahydrocyclopenta[c]pyrrol-4-yl]-N^2-neopentyl-L-leucinamide]",8.08 µM
8,"CC(C)C[C@H](NCC(C)(C)C)C(=O)N[C@H]1CC[C@@H]2CN(S(=O)(=O)c3cccc(C(F)(F)F)c3)C[C@@H]21 [Example 252, N^2-neopentyl-N^1-((3aR,4S,6aS)-2-{[3-(trifluoromethyl)phenyl]sulfonyl}octahydrocyclopenta[c]pyrrol-4-yl)-L-leucinamide]",0.64 µM
9,"CCC[C@H](NCC(C)(C)C)C(=O)N[C@H]1CC[C@@H]2CN(S(=O)(=O)c3cccc(C(F)(F)F)c3)C[C@@H]21 [Example 253, N^2-neopentyl-N^1-((3aR,4S,6aS)-2-{[3-(trifluoromethyl)phenyl]sulfonyl}octahydrocyclopenta[c]pyrrol-4-yl)-L-norvalinamide]",0.36 µM

# The remaining lines, values ahead:
row,IC50,SMILES
1,3.93 µM,"CC(C)C[C@H](NC(=O)OC(C)(C)C)C(=O)N[C@H]1CC[C@@H]2CN(Cc3ccccc3)C[C@@H]21 [Example 221, tert-butyl(S)-1-((3aR,4S,6aS)-2-benzyloctahydrocyclopenta[c]pyrrol-4-ylamino)-4-methyl-1-oxopentan-2-ylcarbamate]"
2,2.05 µM,"CC(C)C[C@@H](C(=O)N[C@H]1CC[C@@H]2CN(Cc3ccccc3)C[C@@H]21)N(C)C(=O)OC(C)(C)C [Example 222, tert-butyl(S)-1-((3aR,4S,6aS)-2-benzyloctahydrocyclopenta[c]pyrrol-4-ylamino)-4-methyl-1-oxopentan-2-yl(methyl)carbamate]"
3,2.06 µM,"CCN(C(=O)OC(C)(C)C)[C@@H](CC(C)C)C(=O)N[C@H]1CC[C@@H]2CN(Cc3ccccc3)C[C@@H]21 [Example 223, tert-butyl(S)-1-((3aR,4S,6aS)-2-benzyloctahydrocyclopenta[c]pyrrol-4-ylamino)-4-methyl-1-oxopentan-2-yl(ethyl)carbamate]"
4,4.64 µM,"CC[C@H](C)[C@@H](C(=O)N[C@H]1CC[C@@H]2CN(Cc3ccccc3)C[C@@H]21)N(C)C(=O)OC(C)(C)C [Example 224, tert-butyl(2S,3S)-1-((3aR,4S,6aS)-2-benzyloctahydrocyclopenta[c]pyrrol-4-ylamino)-3-methyl-1-oxopentan-2-yl(methyl)carbamate]"
5,3.17 µM,"CCCC[C@@H](C(=O)N[C@H]1CC[C@@H]2CN(Cc3ccccc3)C[C@@H]21)N(C)C(=O)OC(C)(C)C [Example 227, tert-butyl(S)-1-((3aR,4S,6aS)-2-benzyloctahydrocyclopenta[c]pyrrol-4-ylamino)-1-oxohexan-2-yl(methyl)carbamate]"
6,3.6 µM,"CC(C)[C@@H](C(=O)N[C@@H]1CC[C@H]2CN(Cc3ccccc3)C[C@H]21)N(C)C(=O)OC(C)(C)C [Example 232, tert-butyl(S)-1-((3aS,4R,6aR)-2-benzyloctahydrocyclopenta[c]pyrrol-4-ylamino)-3-methyl-1-oxobutan-2-yl(methyl)carbamate]"
7,5.73 µM,"CCC[C@@H](C(=O)N[C@H]1CC[C@H]2CN(Cc3ccccc3)C[C@H]21)N(C)C(=O)OC(C)(C)C [Example 238, tert-butyl(S)-1-((3aS,4S,6aR)-2-benzyloctahydrocyclopenta[c]pyrrol-4-ylamino)-1-oxopentan-2-yl(methyl)carbamate]"
8,2.67 µM,"CCC[C@@H](C(=O)N[C@@H]1CC[C@@H]2CN(Cc3ccccc3)C[C@@H]21)N(C)C(=O)OC(C)(C)C [Example 240, tert-butyl(S)-1-((3aR,4R,6aS)-2-benzyloctahydrocyclopenta[c]pyrrol-4-ylamino)-1-oxopentan-2-yl(methyl)carbamate]"
9,3.62 µM,"CN(C(=O)OC(C)(C)C)[C@@H](CC(C)(C)C)C(=O)N[C@H]1CC[C@@H]2CN(Cc3ccccc3)C[C@@H]21 [Example 247, tert-butyl(S)-1-((3aR,4S,6aS)-2-benzyloctahydrocyclopenta[c]pyrrol-4-ylamino)-4,4-dimethyl-1-oxopentan-2-yl(methyl)carbamate]"
10,1.67 µM,"CN(C(=O)OC(C)(C)C)[C@@H](CC(C)(C)C)C(=O)N[C@@H]1CC[C@H]2CN(Cc3ccccc3)C[C@H]21 [Example 248, tert-butyl(S)-1-((3aS,4R,6aR)-2-benzyloctahydrocyclopenta[c]pyrrol-4-ylamino)-4,4-dimethyl-1-oxopentan-2-yl(methyl)carbamate]"

# Same assay, conditions: IMR-32, @ 10 μM, 3 minute pre-incubation (*), read-out: percent inhibition
row,inhibition at 10 µM,SMILES
1,76%,"CC[C@H](C(=O)N[C@@H]1CC[C@@H]2CN([C@@H](C)c3ccccc3)C[C@@H]21)c1ccccc1 [Example 210, (2S)-2-phenyl-N-{(3aR,4R,6aS)-2-[(1S)-1-phenylethyl]octahydrocyclopenta[c]pyrrol-4-yl}butanamide]"
2,60%,"CC[C@H](C(=O)N[C@@H]1CC[C@H]2CN([C@@H](C)c3ccccc3)C[C@H]21)c1ccccc1 [Example 213, (2S)-2-phenyl-N-{(3aS,4R,6aR)-2-[(1S)-1-phenylethyl]octahydrocyclopenta[c]pyrrol-4-yl}butanamide]"
3,56%,"CC(C)C(C(=O)N[C@H]1CC[C@@H]2CN(C(=O)c3ccccc3)C[C@@H]21)c1ccccc1 (stereo partly drawn) [Example 218, N-[(3aR,4S,6aS)-2-benzoyloctahydrocyclopenta[c]pyrrol-4-yl]-3-methyl-2-phenylbutanamide]"
4,63%,"CC(C)N(C(=O)N[C@H]1CC[C@@H]2CN(Cc3ccccc3)C[C@@H]21)c1ccccc1 [Example 219, N′-[(3aR,4S,6aS)-2-benzyloctahydrocyclopenta[c]pyrrol-4-yl]-N-isopropyl-N-phenylurea]"
